The text below walks through data of paper PMC8851515 (Proceedings of the National Academy of Sciences of the …, 2022).

The target in the experiment is T1, hDHHC20 (Homo sapiens, UniProt Q5W0Z9).
T1 sequence (Q5W0Z9 1-365): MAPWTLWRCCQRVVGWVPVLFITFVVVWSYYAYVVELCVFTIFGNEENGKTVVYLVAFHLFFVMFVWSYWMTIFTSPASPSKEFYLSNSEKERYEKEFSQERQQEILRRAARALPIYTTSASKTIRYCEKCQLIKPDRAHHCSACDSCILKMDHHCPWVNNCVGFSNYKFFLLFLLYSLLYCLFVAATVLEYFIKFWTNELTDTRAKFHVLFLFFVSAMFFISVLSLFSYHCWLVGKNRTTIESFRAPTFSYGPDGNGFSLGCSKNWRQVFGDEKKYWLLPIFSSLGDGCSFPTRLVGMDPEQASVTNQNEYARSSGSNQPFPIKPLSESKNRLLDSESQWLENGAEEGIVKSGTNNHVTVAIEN
The experiment is described as follows: coupled-enzyme PAT activity inhibition assay. Type of experiment: biochemical.

As usually defined, the IC50 is the point on the concentration scale where inhibition reaches its midpoint. Higher therefore signals lower potency. Take `CCCCCCCCCCCCCCC(Br)C(=O)O` (stereo not shown) [2-bromopalmitic acid]: the IC50 is 4.5 µM.
